In patent US11207320B2, “Compositions and methods for cancer expressing PDE3A or SLFN12” (The Broad Institute, Inc., priority 2015, dated 2021):
Where two headings read alike, the source gives them in different places.

Tests used:
A549 cells [1] = test: Compound sensitivity testing in cell lines (48 h viability); assay type: cell-based; conditions: Homo sapiens; A549, 48 hours
Protocol: (§1) 1500 NCI-H1734 or 1000 A549 cells were plated in a 384-well plate in 40 μl of RPMI supplemented with 10% Fetal Bovine Serum and 1% Pen/Strep. 24 hours after plating, a compound-library of 1924 small molecules was added at a concentration of 10 μM. Staurosporine was used a positive control for cytotoxicity at a concentration of 10 μM, and DMSO was used a negative control at a concentration of 1%. All compounds were incubated for 48 hours with indicated small molecules. After 48 hours, 384-well plates were removed from the incubator and allowed to cool to room temperature for 20 minutes. Cell viability was assessed by adding 40 μl of a 25% CELLTITERGLO® (Promega) in PBS with a THERMO COMBI™ or multichannel-pipette and incubated for 10 minutes. The luminescence signal was read using a Perkin-Elmer EnVision. Viability percentage was calculated by normalizing to DMSO controls.
(§2) 1000 HeLa (DMEM), 1000 A549 (RPMI), 500 MCF-7 (DMEM), 4000 PC3 (F12-K), 1000 NCI-H2122 (RPMI) or 1500 NCI-H1563 (RPMI) cells were plated in a 384-well plate in 40 μl of corresponding growth media supplemented with 10% Fetal Bovine Serum. 24 hours after plating, indicated compounds were added at indicated concentrations and incubated for 48 hours. Cell viability was assessed as described in Compound library screening in NCI-H1734 and A549 cell lines.

MCF7 cells = test: as above; assay type: cell-based; conditions: Homo sapiens; MCF7, 48 hours
Protocol: as §1, §2

NCI-H1563 cells = test: as above; assay type: cell-based; conditions: Homo sapiens; NCI-H1563, 48 hours
Protocol: as §1, §2

NCI-H2122 cells = test: as above; assay type: cell-based; conditions: Homo sapiens; NCI-H2122, 48 hours
Protocol: as §1, §2

PC3 cells = test: as above; assay type: cell-based; conditions: Homo sapiens, PC-3; PC3, 48 hours
Protocol: as §1, §2

HeLa cells [2] = test: PARP-cleavage immunoblotting; assay type: cell-based; conditions: 36 hours
Protocol: HeLa cells were treated with indicated concentration of DNMDP and staurosporine for 36 hours. HeLa cells were lysed and processed as described in Linker-affinity purification of molecular target of DNMDP and immunoblotting. Membranes were incubated with an antibody against PARP (1:1000, Cell Signaling #9532) and actin and subsequently imaged as described in Linker-affinity purification of molecular target of DNMDP and immunoblotting.

PDE11A = biological target: T1, PDE11A (Homo sapiens, UniProt Q9HCR9); test: Phosphodiesterase inhibition reactions (Caliper panel); assay type: biochemical; conditions: 100 nM
T1 construct: Caliper
Protocol: (§3) DNMDP concentration was 100 nM.

PDE4C1 = biological target: T2, PDE4C1 (Homo sapiens, UniProt Q08493); test: as above; assay type: biochemical; conditions: PDE4C1, 100 nM
T2 construct: Caliper
Protocol: as §3

234 kinases = test: Screening of 234 kinases; assay type: biochemical; conditions: 10 μM
A549 cells [3] = test: Sensitization of DNMDP-resistant cell line by expression of SLFN12 or SLFN12 and PDE3A; assay type: cell-based; conditions: A549 expressing SLFN12
Text: FIG. 22 is a plot showing sensitization of a DNMDP-resistant cell line by expression of SLFN12 or expression of SFLN12 and PDE3A.
Adding PDE3A expression led to further sensitization.

HeLa cells [4] = assay type: cell-based; conditions: co-treated with DNMDP, 48 hours
Protocol: HeLa cells were co-treated with 30 nM DNMDP (the EC70 concentration) and 20 μM of each bioactive compound. Cell viability after 48-hour treatment was assessed by ATP consumption as described earlier.
1000 HeLa cells were plated in a 384-well plate in 40 μl of DMEM supplemented with 10% Fetal Bovine Serum and 1% Pen/Strep. 24 hours after plating, a compound-library of 1600 bioactive molecules (Pharmacon) was added at a concentration of 20 μM. In parallel to bioactive compound incubation, DNMDP was added to a final concentration of 30 nM and incubated for 48 hours. Cell viability was assessed as described in Compound library screening in NCI-H1734 and A549 cell lines.

PDE3 = conditions: Ruppert et al., Life Sci. 31, 2037-2043, 1982; cited from earlier work
PDE3A = PDE3A (Homo sapiens, UniProt Q14432); test: Linker-affinity purification of molecular target of DNMDP and immunoblotting; assay type: binding; set-up: Immunoprecipitation of endogenous PDE3A in HeLa cells; endogenous in cells; host or cells: HeLa; conditions: HeLa cell lysate, competitor 10 μM, immunoblot for PDE3A
Protocol: To identify the molecular target of DNMDP, an affinity purification was performed using an (R)-des-nitro-DNMDP solid-phase tethered linker analogue (FIG. 10A) incubated with HeLa cell lysate. […] It was competed for the molecular target by adding either an excess of trequinsin or separate enantiomers of DNMDP, where only the (R)-enantiomer was cytotoxic. […] Binding of PDE3A to the linker analogue was blocked by both trequinsin and (R)-DNMDP, but not by the non-cytotoxic enantiomer (S)-[…]. 9C). Thus both trequinsin and (R)-DNMDP prevented the binding of PDE3A to the tethered DNMDP analogue, and it was concluded that both molecules bind PDE3A directly. HeLa cells were washed with ice-cold PBS before lysed with NP-40 lysis buffer (150 mM NaCl, 10% glycerol, 50 mM Tris-Cl pH 8.0, 50 mM MgCl2, 1% NP-40) supplemented with EDTA-free protease inhibitors (Roche) and phosphatase inhibitor mixtures I and II (Calbiochem). […] Samples were washed three times with lysis buffer containing corresponding compound concentrations of 10 μM. Proteins bound to Affi-Gel 102 resin were reduced, denatured, and separated using Tris-Glycine gels (Novex) and transferred to nitrocellulose membranes using the iBlot transfer system (Novex). Membranes were incubated overnight at 4° C. with primary antibodies against PDE3A (1:1000, Bethyl). […]

[5] = replicate #1, read-out: % inh. #1
[6] = replicate #2, read-out: % inh. #2

T1 sequence (Q9HCR9 whole entry, species assumed): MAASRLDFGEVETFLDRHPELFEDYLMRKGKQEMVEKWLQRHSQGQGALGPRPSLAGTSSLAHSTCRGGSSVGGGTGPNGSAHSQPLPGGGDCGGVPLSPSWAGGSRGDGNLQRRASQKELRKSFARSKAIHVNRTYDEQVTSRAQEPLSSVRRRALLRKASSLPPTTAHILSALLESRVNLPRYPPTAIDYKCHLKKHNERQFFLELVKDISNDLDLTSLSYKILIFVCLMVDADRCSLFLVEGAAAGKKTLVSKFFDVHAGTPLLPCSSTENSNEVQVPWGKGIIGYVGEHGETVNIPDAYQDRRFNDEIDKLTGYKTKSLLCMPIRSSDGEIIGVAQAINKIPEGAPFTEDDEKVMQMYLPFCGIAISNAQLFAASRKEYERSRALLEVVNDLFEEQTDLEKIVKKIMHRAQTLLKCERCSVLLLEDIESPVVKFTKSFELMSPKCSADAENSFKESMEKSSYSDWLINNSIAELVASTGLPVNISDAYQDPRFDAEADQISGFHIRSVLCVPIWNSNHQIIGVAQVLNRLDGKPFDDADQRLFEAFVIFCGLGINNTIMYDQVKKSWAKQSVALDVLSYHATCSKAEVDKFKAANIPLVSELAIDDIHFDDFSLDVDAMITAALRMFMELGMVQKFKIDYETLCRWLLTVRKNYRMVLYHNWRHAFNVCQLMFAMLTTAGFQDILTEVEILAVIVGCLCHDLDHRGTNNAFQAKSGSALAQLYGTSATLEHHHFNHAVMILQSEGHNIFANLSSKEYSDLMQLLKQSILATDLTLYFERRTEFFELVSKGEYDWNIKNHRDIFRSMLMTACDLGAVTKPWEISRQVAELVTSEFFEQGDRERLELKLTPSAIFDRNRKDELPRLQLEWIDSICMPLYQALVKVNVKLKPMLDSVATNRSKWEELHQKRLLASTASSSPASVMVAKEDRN
T2 sequence (Q08493 whole entry, species assumed): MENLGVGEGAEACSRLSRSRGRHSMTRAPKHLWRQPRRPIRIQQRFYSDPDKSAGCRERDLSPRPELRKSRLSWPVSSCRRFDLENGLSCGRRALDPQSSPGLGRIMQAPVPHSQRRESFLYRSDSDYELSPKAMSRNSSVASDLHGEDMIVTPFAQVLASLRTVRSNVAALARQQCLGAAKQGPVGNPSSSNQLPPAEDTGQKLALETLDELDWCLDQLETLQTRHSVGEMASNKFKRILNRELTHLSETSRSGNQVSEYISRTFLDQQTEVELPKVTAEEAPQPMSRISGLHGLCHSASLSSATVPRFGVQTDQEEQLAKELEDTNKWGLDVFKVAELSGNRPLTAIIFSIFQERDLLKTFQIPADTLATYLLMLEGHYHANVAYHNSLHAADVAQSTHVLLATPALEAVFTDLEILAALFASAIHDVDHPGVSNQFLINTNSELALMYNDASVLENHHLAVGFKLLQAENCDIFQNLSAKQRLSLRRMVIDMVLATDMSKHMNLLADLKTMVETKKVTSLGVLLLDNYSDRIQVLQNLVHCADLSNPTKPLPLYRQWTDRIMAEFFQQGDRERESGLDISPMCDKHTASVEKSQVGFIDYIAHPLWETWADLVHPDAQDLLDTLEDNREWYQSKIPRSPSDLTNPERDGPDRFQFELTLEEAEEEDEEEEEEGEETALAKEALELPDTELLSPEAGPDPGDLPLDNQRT
PDE3A, sequence (Q14432 whole entry): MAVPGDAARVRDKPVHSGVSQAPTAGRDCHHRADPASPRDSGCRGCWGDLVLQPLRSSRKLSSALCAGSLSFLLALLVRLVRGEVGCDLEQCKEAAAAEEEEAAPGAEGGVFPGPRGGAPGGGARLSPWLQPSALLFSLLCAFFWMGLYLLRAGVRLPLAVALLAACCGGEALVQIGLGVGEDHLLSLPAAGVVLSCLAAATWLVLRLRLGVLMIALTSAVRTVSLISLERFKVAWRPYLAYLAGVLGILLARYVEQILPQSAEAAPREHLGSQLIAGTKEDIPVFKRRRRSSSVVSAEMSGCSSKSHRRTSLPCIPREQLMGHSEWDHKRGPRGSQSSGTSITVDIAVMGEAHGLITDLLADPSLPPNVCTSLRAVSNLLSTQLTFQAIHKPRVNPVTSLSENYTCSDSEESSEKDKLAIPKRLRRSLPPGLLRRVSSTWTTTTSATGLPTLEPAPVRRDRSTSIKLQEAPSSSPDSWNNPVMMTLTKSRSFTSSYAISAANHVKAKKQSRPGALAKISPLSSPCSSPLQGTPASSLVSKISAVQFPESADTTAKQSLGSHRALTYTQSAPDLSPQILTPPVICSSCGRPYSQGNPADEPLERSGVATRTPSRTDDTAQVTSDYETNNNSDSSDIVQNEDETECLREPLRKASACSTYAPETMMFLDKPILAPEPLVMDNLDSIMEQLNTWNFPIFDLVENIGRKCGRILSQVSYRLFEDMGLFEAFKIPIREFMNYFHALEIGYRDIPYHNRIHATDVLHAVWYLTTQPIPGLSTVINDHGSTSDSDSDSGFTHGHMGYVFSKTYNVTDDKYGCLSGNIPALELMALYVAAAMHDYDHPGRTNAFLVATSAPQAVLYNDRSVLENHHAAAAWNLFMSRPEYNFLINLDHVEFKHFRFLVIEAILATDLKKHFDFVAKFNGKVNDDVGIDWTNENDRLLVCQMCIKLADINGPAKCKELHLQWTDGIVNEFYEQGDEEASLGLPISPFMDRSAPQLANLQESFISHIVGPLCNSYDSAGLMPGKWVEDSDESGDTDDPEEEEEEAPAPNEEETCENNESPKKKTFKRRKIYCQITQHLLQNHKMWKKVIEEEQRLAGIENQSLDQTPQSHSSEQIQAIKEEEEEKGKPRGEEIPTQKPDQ

SMILES | EC50 (A549 cells [1]) | EC50 (MCF7 cells) | EC50 (NCI-H1563 cells) | EC50 (NCI-H2122 cells) | EC50 (PC3 cells) | PARP cleavage (HeLa cells [2]) | inhibition at 0.1 µM (PDE11A; read-out: % inhibition) | inhibition at 0.1 µM (PDE11A; [5]) | inhibition at 0.1 µM (PDE11A; [6]) | inhibition at 0.1 µM (PDE4C1; [5]) | inhibition at 0.1 µM (PDE4C1; [6]) | inhibition at 0.1 µM (PDE4C1; read-out: % inhibition) | kinase inhibition (234 kinases) | sensitivity of A549 cells upon expression of SLFN12 (A549 cells [3]) | RC50 (the concentration at which it achieved 50% rescue) (HeLa cells [4]) | IC50 (PDE3) | blocking of binding of PDE3A to the tethered linker analogue (PDE3A)
CCN(CC)c1ccc(C2=NNC(=O)CC2C)cc1[N+](=O)[O-] (centres unmarked) [DNMDP, 6-(4-(diethylamino)-3-nitrophenyl)-5-methyl-4,5-dihydropyridazin-3(2H)-one] | > 1000 nM | > 1000 nM | 10 to 100 nM | 10 to 100 nM | > 1000 nM | detected | 16% | 14% | 18% | 10% | 14% | 12% | no kinase inhibition | sufficient to confer DNMDP sensitivity | – | – | –
COc1cc2c(cc1OC)-c1c/c(=N\c3c(C)cc(C)cc3C)n(C)c(=O)n1CC2 [trequinsin, 9,10-dimethoxy-3-methyl-2-(2,4,6-trimethylphenyl)imino-6,7-dihydropyrimido[6,1-a]isoquinolin-4-one] | – | – | – | – | – | – | – | – | – | – | – | – | – | – | < 1 nM | 0.25 nM | blocked
